Assay results as given in PubChem BioAssay (NCI).
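Cells were grown in 96-well plates and exposed to each compound for 48 hours at five concentrations; endpoints were interpolated linearly between bracketing concentrations, or set to the highest concentration if not reached. Here, GI50 denotes the concentration required for 50% inhibition of growth. TGI: total growth inhibition.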 Where a SMILES comes first, the peptide text is derived from it. The star is where a group is joined. Cbz = O=C(OCc1ccccc1)*; OBn = c1ccc(CO*)cc1

Assays:
Test in all cases: NCI-60 cell line screen, 48 h
SNB-75 CNS = system: SNB-75 CNS
SN12C renal = system: SN12C renal
SK-MEL-5 melanoma = system: SK-MEL-5 melanoma
HL-60(TB) leukemia = system: HL-60(TB) leukemia
HOP-92 NSCLC = system: HOP-92 NSCLC
UACC-257 melanoma = system: UACC-257 melanoma
MDA-MB-435 = system: MDA-MB-435
SR leukemia = system: SR leukemia
MDA-N = system: MDA-N
HCC-2998 colon = system: HCC-2998 colon

| SMILES | TGI (SNB-75 CNS) | TGI (SN12C renal) | TGI (SK-MEL-5 melanoma) | TGI (HL-60(TB) leukemia) | TGI (HOP-92 NSCLC) | TGI (UACC-257 melanoma) | GI50 (SNB-75 CNS) | GI50 (SN12C renal) | GI50 (SK-MEL-5 melanoma) | GI50 (HL-60(TB) leukemia) | GI50 (MDA-MB-435) | TGI (MDA-MB-435) | GI50 (HOP-92 NSCLC) | TGI (SR leukemia) | TGI (MDA-N) | TGI (HCC-2998 colon) | GI50 (SR leukemia) | GI50 (UACC-257 melanoma) | GI50 (HCC-2998 colon) |
| --- | --- | --- | --- | --- | --- | --- | --- | --- | --- | --- | --- | --- | --- | --- | --- | --- | --- | --- | --- |
| Cn1c(O)c(C(=O)Nc2cccs2)c(=O)[nH]c1=S | 31.3 µM | 74.6 µM | 26.9 µM | > 100 µM | 33.4 µM | 32.6 µM | – | – | – | – | – | – | – | – | – | – | – | – | – |
| N#CC(C#N)=CN1CCN(C(=O)c2ccco2)C1=S | > 100 µM | 16.5 µM | 8.07 µM | 58.1 µM | > 100 µM | – | 40.6 µM | 3.12 µM | 2870 nM | 19.8 µM | 5.28 µM | 40 µM | 22.4 µM | – | – | – | – | – | – |
| C=C1C(=O)C([Si](C)(C)C)=C2C=C(C)C3(CC3)C12C (centres undefined) | – | > 100 µM | > 100 µM | 34.8 µM | – | > 100 µM | – | – | – | – | – | 64.3 µM | – | 11.7 µM | > 100 µM | 70.2 µM | – | – | – |
| O=C(NO)c1ccc([N+](=O)[O-])cc1 | 93.8 µM | > 100 µM | > 100 µM | 50.9 µM | – | > 100 µM | – | – | – | – | – | – | – | – | – | > 100 µM | – | – | – |
| CC1CC2OC(=O)C3CC(O)CC(=C23)[C@@]12C[C@@H](c1ccoc1)OC2=O (some centres undefined) | > 100 µM | > 100 µM | > 100 µM | > 100 µM | > 100 µM | > 100 µM | – | – | – | – | – | – | – | > 100 µM | – | > 100 µM | – | – | – |
| COc1ccc(/C=C2\OC(=O)C(Cl)=C2c2ccc(OC)cc2)cc1 | > 100 µM | > 100 µM | > 100 µM | > 100 µM | 70.1 µM | > 100 µM | – | – | – | – | – | > 100 µM | – | > 100 µM | > 100 µM | – | – | – | – |
| CCOC(=O)/C(N=Nc1ccc(-n2c(C)nc3ccccc3c2=O)cc1)=C(/C)O | 78.4 µM | > 100 µM | 16 µM | 41.2 µM | > 100 µM | > 100 µM | – | – | – | – | – | 59.8 µM | – | > 100 µM | > 100 µM | – | – | – | – |
| COc1cc(/C=C\c2ccccn2)cc(OC)c1OC | > 100 µM | > 100 µM | > 100 µM | > 100 µM | > 100 µM | > 100 µM | – | – | – | – | – | – | – | – | – | – | – | – | – |
| COc1cc(/C=C/C(=O)c2sc(-n3nc(-c4ccccc4)cc3-c3ccccc3)nc2C)ccc1O | > 100 µM | > 100 µM | > 100 µM | > 100 µM | > 100 µM | > 100 µM | – | – | – | – | – | – | – | – | – | > 100 µM | – | – | – |
| CCOC(=O)CSc1ccnc(=O)[nH]1 | > 100 µM | > 100 µM | > 100 µM | > 100 µM | – | > 100 µM | – | – | – | – | – | – | – | – | – | – | – | – | – |
| CN(C(=O)C12C3C4C1C1C2C3C41I)C(C)(C)C (centres undefined) | > 100 µM | > 100 µM | > 100 µM | > 92.7 µM | – | > 100 µM | – | – | – | – | – | – | – | > 31.6 µM | – | > 100 µM | – | – | – |
| CCOC(=O)c1nc2ccc(C(F)(F)F)cc2nc1NCc1ccc(Cl)c(Cl)c1 | 51.3 µM | – | > 100 µM | > 100 µM | 40.4 µM | > 100 µM | – | – | – | – | – | 56.7 µM | – | > 100 µM | > 100 µM | – | – | – | – |
| Cc1c(C#N)c2nnn(C)c(=O)n2c1-c1ccccc1 | > 100 µM | > 100 µM | – | > 100 µM | > 100 µM | > 100 µM | – | – | – | – | – | > 100 µM | – | – | > 100 µM | > 100 µM | – | – | – |
| Cc1c2ccncc2cc2c1sc1ccncc12 | 15.4 µM | 16.5 µM | 5.78 µM | 6.79 µM | 46.9 µM | 11 µM | – | – | – | – | – | – | – | 1.67 µM | 14.3 µM | 15.4 µM | – | – | – |
| COc1ccc2c(c1)CC[C@@H]1[C@@H]2CC[C@]2(C)C(=O)C3(CCCCC3)C[C@@H]12 | > 100 µM | > 100 µM | > 100 µM | > 100 µM | > 100 µM | > 100 µM | > 100 µM | > 100 µM | > 100000 nM | > 100 µM | > 100 µM | > 100 µM | > 100 µM | > 100 µM | – | > 100 µM | > 100 µM | 44.8 µM | > 100 µM |
| N#CC1(C#N)C2CCCCC23OC(=N)C1(C#N)C(c1ccco1)O3 (centres undefined) | > 100 µM | 29.2 µM | 31.3 µM | – | 29.2 µM | 34.9 µM | – | – | – | – | – | 52.8 µM | – | – | 33.8 µM | 31 µM | – | – | – |
| Cn1nc(Cc2ccc(Cl)cc2)n(N)c1=O | > 100 µM | > 100 µM | > 100 µM | – | – | > 100 µM | – | – | – | – | – | > 100 µM | – | – | > 100 µM | > 100 µM | – | – | – |
| CC(C)OP(=O)(OC(C)C)C(C(C)C)N(C)/C(N)=N\C1=NC(C(F)(F)F)(C(F)(F)F)N=C(C(C(F)(F)F)C(F)(F)F)O1 (centres undefined) | 11.9 µM | 10.5 µM | – | 4.16 µM | – | 10.3 µM | – | – | – | – | – | 3.78 µM | – | 14.2 µM | 4.91 µM | 19.5 µM | – | – | – |
| CCOC(C[C@H](O)[C@H]1COC(=S)S1)OCC | – | > 100 µM | > 100 µM | > 100 µM | – | > 100 µM | – | – | – | – | – | – | – | > 100 µM | – | > 100 µM | – | – | – |
| O=c1[nH]c(=O)n(C2OC(CO)C(O)C(F)C2O)cc1F (centres undefined) | – | > 100 µM | > 100 µM | > 100 µM | > 100 µM | > 100 µM | – | – | – | – | – | > 100 µM | – | 76.4 µM | > 100 µM | > 100 µM | – | – | – |
| O=C(NC(C(F)(F)F)(C(F)(F)F)P(=O)(c1ccccc1)c1ccccc1)C(C(F)(F)F)C(F)(F)F | 91.3 µM | 77 µM | 37 µM | 63.2 µM | – | 82.2 µM | – | – | – | – | – | 37.7 µM | – | – | 44.2 µM | > 100 µM | – | – | – |
| CC(C)=CCCC1(C)C=Cc2c(c(C)cc3c2[nH]c2cc(O)ccc23)O1 (centres undefined) | – | > 25 µM | > 25 µM | > 25 µM | > 25 µM | – | – | – | – | – | – | – | – | > 25 µM | – | > 25 µM | – | – | – |
| O=S(=O)([O-])[O-].[Fe+2].c1ccc(/C(=N\Nc2ccccn2)c2ccccn2)cc1 | 14.7 µM | 9.69 µM | 4.43 µM | 4.62 µM | 7.67 µM | 4.39 µM | – | – | – | – | – | – | – | – | – | 16.2 µM | – | – | – |
| COC(=O)CNC(=O)C(C)NC(=O)C(CC(=O)OCc1ccccc1)NC(=O)OCc1ccccc1 (stereo not drawn) (Cbz-Asp(OBn)-Ala-Gly-OMe; configuration not given here) | > 100 µM | > 100 µM | 71.8 µM | – | > 100 µM | > 100 µM | – | – | – | – | – | > 100 µM | – | > 100 µM | > 100 µM | > 100 µM | – | – | – |
| CN(C)c1ccc(/C=C/C=C\C2=CC(=C\C=C/C=C3C=CC(=[N+](C)C)C=C3)/Sc3ccccc32)cc1 | > 100 µM | > 100 µM | > 100 µM | > 100 µM | – | > 100 µM | – | – | – | – | – | – | – | – | – | – | – | – | – |
